Measured values reported in patent US20130158362A1 (INFACARE PHARMACEUTICAL CORPORATION, priority 2011, published 2013).
“Also recorded” adds a separate entry of the source.

Experiments:
heme oxygenase = details: cited from earlier work
[1] = system: term and late preterm subjects with hyperbilirubinemia; assay: Phase 2b trial: quantitative electrocardiograms (QT); format: in vivo, human
Description: In some embodiments, 12-Lead ECGs measurements comprise clarification of a cardiovascular event, measurement of cardiac intervals and morphological assessment, measurements of the RR, PR, QRS, and QT interval durations and combinations thereof. In some embodiments, Bazett's correction of the QT interval (QTcB), Fridericia's correction of the QT interval (QTcF), and heart rate (HR) can be derived from 12-Lead ECGs measurements.
Safety measurements included adverse events (AEs), hematology and chemistry laboratory tests, vital sign measurements, physical examinations, dermatological assessments, hearing assessments, ophthalmological assessments, neurological assessments, and quantitative electrocardiograms (ECGs).
All other safety endpoints (vital sign measurements, hematology and chemistry laboratory tests, physical examination results, ECG results, etc.) were summarized by treatment group and visit. In addition, shift tables were generated for laboratory results comparing postbaseline results with baseline. Similar shift tables were generated for results of vital sign measurements.

[2] = system: term and late preterm subjects with hyperbilirubinemia; assay: Phase 2b trial: need for phototherapy/exchange transfusion, time to PT, duration of PT, time to hospital discharge; format: in vivo, human; details: for Time to discharge, Mean: from treatment; for Time to PT (range): subjects who needed PT
Experimental: PT was standardized for this study. TSB levels were initially assessed at 6 hours after IM injection to determine if PT was necessary. If the subject met the AAP Guidelines for starting PT, PT was initiated, and if the criteria were not met at the time, the subjects continued in the study until the next TSB level assessment (at 12, 24, and 48 hours following IMP injection). If, at any of these time points, the subject met the criteria for initiation of PT per AAP Guidelines, then PT was started.
In subjects receiving PT, determinations to assess whether or not PT was still required were done every 6 hours (±15 min); if the TSB was declining over 2 of these 6 hour assessments, TSB assessments could be done every 12 hours (±15 min). PT was stopped after 1 declining TSB assessment had been reviewed and the TSB level had declined to at least 2 mg/dL below the threshold for PT (as determined by the age of the subject when the blood was collected). As part of the clinical management of the subject, once PT was stopped, a TSB assessment was performed at approximately 6 hours later to assure there was no rebound in the bilirubin level. If the TSB rebounded above the threshold for PT, further clinical management was at the discretion of the principal investigator. After completion of Visit 4 (Day 30), parents/guardians were asked to enroll the completed subjects into a long term safety follow-up study.
The Secondary Efficacy Endpoints were the change from baseline in unadjusted TSB at 48 hours after treatment, change from baseline in adjusted and unadjusted TSB at various other time points after treatment, percent change from baseline in unadjusted TSB, proportion of subjects who require PT/exchange transfusion (ET), time to PT/ET, duration of PT and time to hospital discharge.
Analysis of Efficacy Parameters: The primary efficacy analysis applied the analysis of covariance (ANCOVA) method to determine if there was a significant difference between treatment groups in change in adjusted TSB levels from baseline to 48 hours post baseline after controlling for the effects of gestational age and adjusted baseline TSB levels. If assumptions of ANCOVA appeared to be violated, a Wilcoxon rank-sum test could be performed instead. Time-to-event variables were analyzed using the Kaplan-Meier method, and Kaplan-Meier survival curves were presented.

tin IV mesoporphyrin IX dichloride [Stannsoporfin]
inhibition of heme oxygenase (heme oxygenase): potent competitive inhibitor
QT prolongation ([1]; 1.5 to 4.5 mg/kg IM): no QT prolongation
effect on heart rate, PR interval, RR interval, QRS complexes and QT interval ([1]; 1.5 to 4.5 mg/kg IM): no effect
ECG results compared to the placebo group ([1]; final data): no dose-related trends or marked differences
maximum duration of PT ([2]; 1.5 mg/kg): 1426 min
Duration of PT ([2]; 1.5 mg/kg IM): about 20 hours
Time to discharge, Range ([2]; 1.5 mg/kg IM): 14.6 to 143.3 h
subjects who received/required phototherapy (PT), n (%) ([2]; 1.5 mg/kg IM, N = 17): 3 (17.6%)
Time to discharge, Mean ([2]; 1.5 mg/kg IM): 38 h
Time to PT (range) ([2]; 1.5 mg/kg IM): 5.2 to 17.8 h
maximum duration of PT ([2]; 3 mg/kg): 1140 min
Duration of PT ([2]; 3.0 mg/kg IM): about 14 hours
Time to discharge, Range ([2]; 3.0 mg/kg IM): 11.5 to 77.0 h
subjects who received/required phototherapy (PT), n (%) ([2]; 3.0 mg/kg IM, N = 18): 6 (33.3%)
Time to discharge, Mean ([2]; 3.0 mg/kg IM): 42.8 h
Time to PT (range) ([2]; 3.0 mg/kg IM): 7.2 to 15.2 h
maximum duration of PT ([2]; 4.5 mg/kg): 990 min
Duration of PT ([2]; 4.5 mg/kg IM): about 14 hours
Time to discharge, Range ([2]; 4.5 mg/kg IM): 15 to 405.3 h
subjects who received/required phototherapy (PT), n (%) ([2]; 4.5 mg/kg IM, N = 8): 2 (25%)
Time to discharge, Mean ([2]; 4.5 mg/kg IM): 48.3 h
Time to PT (range) ([2]; 4.5 mg/kg IM): 7.3 to 8.8 h
time to hospital discharge compared to placebo ([2]; 4.5 mg/kg, largely due to 1 subject with meningitis): significantly greater
exchange transfusions (ET) required ([2]; all dose groups): no exchange transfusions; also recorded: no subjects requiring ET
readmission to hospital ([2]; all stannsoporfin dose groups): No subjects who received stannsoporfin were readmitted
treated infants requiring subsequent phototherapy ([2]; single 1.5 mg/kg dose): 17.6%
